The subject of assay [1] is Mcl-1 1780 cell line. Kind of assay: DAPI fluorescence cell-based cytotoxicity (apoptosis) assay, Mcl-1 1780. Also noted: species or system mouse. The following applies: 1 μM, 500 nM, 250 nM, 125 nM; 24 hours; FIG. 2. On the procedure: (§1) The mouse leukemia-derived cell lines Mcl-1-1780 and Bcl-2-1863 (Ryan et al., Proc. Nat. Acad. Sci USA, 107, 12895-12900, which is hereby incorporated by reference in its entirety) were obtained under license from Dana Farber Cancer Institute. Cells were grown in RPMI 1640 medium (GIBCO-BRL) with 2 mM L-glutamine, 4.5 g/L glucose, 1.0 mM sodium pyruvate and 5% fetal bovine serum. Cells were expanded in tissue culture in appropriate media and then sub-cultured into 96-well plates at a seeding density of 20,000 cells per well. After incubation for 24 hours, cells were treated with compounds that are titrated into appropriate medium with FCS. Four concentrations of compound were used: 1 μM, 500 nM, 250 nM, and 125 nM. Assay was run in triplicate for each compound at each concentration and averages were calculated. Cells were treated with compound for 24 hours, then fixed with methanol and stained with the DNA-binding agent DAPI (4′,6-diamidino-2-phenylindole). The cells were then examined by fluorescent microscopy; cells in which caspase 3 and caspase 7 have not been activated will emit at […] when excited by […] light. Caspase-mediated cleavage of nucleosomal proteins causes condensed, pycnotic nuclear morphology that may be measured by cell counting.

Assay [2] has as its system Bcl-2 1863 cell line. In words: DAPI fluorescence cell-based cytotoxicity (apoptosis) assay, Bcl-2 1863. Also noted: species or system mouse. The following applies: 1 μM, 500 nM, 250 nM, 125 nM; 24 hours; relative to Mcl-1 1780; FIG. 2. On the procedure: as §1
The test system of assay [3] is DHL-6 cell line. Kind of assay: In situ mitochondrial cytochrome c release assay, DHL-6. In kind it is cell-based. The following applies: semi-permeabilized cells, 1 hour; Bax/Bak-functional cell line; FIG. 3. The source says: (§2) The on-target activity of compound 12 was validated. Changes in mitochondrial integrity were observed utilizing anti-cytochrome c conjugated to Alexa488 (BD). When the mitochondria are intact, they retain cytochrome c and have bright, punctate staining with the antibody whereas cells with compromised mitochondrial integrity will lose cytochrome c and will not stain with the antibody. This can be observed by microscopy as well as measured by a shift in fluorescence on the FL1 channel of a flow cytometer.
(§3) The selective response of mitochondria in semi-permeabilized cell lines to the compounds was observed. The assay was adapted from (Campos et al. (2006) Cytometry Part A. 69(A):515-523, which is hereby incorporated by reference in its entirety).
(§4) Suspension cell lines SUDHL6, SUDHL8, and SUDHL10 were grown in RPMI, washed once in 1×PBS and re-suspended at a concentration of 2e6/ml in assay buffer with 0.0025% Digitonin. Assay buffer; 300 mM Trehalose, 10 mM HEPES-KOH pH 7.7, 80 mM KCl, 1 mM EGTA, 1 mM EDTA, 0.1% BSA, 5 mM Succinate. […] Cytochrome c loss was measured by microscopy. At least 100 cells per treatment were counted and scored as positive for cytochrome c loss if they lacked staining. In both methods DMSO was calculated as 0% cytochrome c loss and the Bim response for DHL6 was used to determine 100% cytochrome c loss.

The subject of assay [4] is DHL-8 cell line. In words: In situ mitochondrial cytochrome c release assay, DHL-8. The following applies: semi-permeabilized cells, 1 hour; reduced mitochondrial priming; FIG. 3. In kind it is cell-based.
Source text: as §2, §3, §4

The test system of assay [5] is DHL-10 cell line. In words: In situ mitochondrial cytochrome c release assay, DHL-10. In kind it is cell-based. The following applies: semi-permeabilized cells, 1 hour; Bax/Bak-deficient cell line; FIG. 3.
Source text: as §2, §3, §4

The results in this text go back to patent US20150133450A1, “METHODS AND COMPOSITIONS USEFUL FOR TREATING DISEASES INVOLVING BCL-2 FAMILY PROTEINS WITH QUINOLINE DERIVATIVES” (Eutropics Pharmaceuticals, Inc., priority 2012, published 2015).

Take `CCN1CCN(C(c2ccc(C(F)(F)F)cc2)c2ccc3cccnc3c2O)CC1` (centres unmarked) [Compound 12, 7-((4-ethylpiperazin-1-yl)(4-(trifluoromethyl)phenyl)methyl)quinolin-8-ol]: in assay [1], the “Induction of apoptosis (DAPI nuclear morphology) in Mcl-1 1780” value was “induce apoptosis”. In addition, the “Induction of apoptosis (DAPI nuclear morphology) in Bcl-2 1863” value in assay [2] is “significantly lesser degree”. Moreover, the “Cytochrome c release, DHL-6” value in assay [3] is “activity”. Moreover, the “Cytochrome c release, DHL-8” value in assay [4] is on record as “reduced activity”. In assay [5], the “Cytochrome c release, DHL-10” value is listed as “lack of activity”.
